The values that follow come from PMC4729767 (Theranostics, 2016).

Data set [1] can be described thus: In vitro drug release by dialysis. Format: physicochemical. The conditions noted are these: dialysis (MWCO 8-14 kDa), PBS pH 7.4 with 0.1% Tween 80, 37 °C, 48 h, HPLC, n = 3.
Data set [2] relates to C6 cells. Nature of the data set: Annexin V-FITC/PI apoptosis study. Format: cell-based, murine. To be noted: PTX 1 μg/mL, 24 h, flow cytometer, n = 3, mean ± SD. In general terms: A flow cytometer gives signals particle by particle.
The test system of data set [3] is intracranial C6 glioma bearing mice. Nature of the data set: Anti-glioma efficacy. Format: in vivo, Balb/c mice. The conditions noted are these: versus Saline; PTX 3 mg/kg i.v. x 6; n = 9.

In the case of `CC(=O)O[C@H]1C(=O)[C@@]2(C)[C@H]([C@H](OC(=O)c3ccccc3)[C@]3(O)C[C@H](OC(=O)[C@H](O)[C@@H](NC(=O)c4ccccc4)c4ccccc4)C(C)=C1C3(C)C)[C@]1(OC(C)=O)CO[C@@H]1C[C@@H]2O` [free PTX, Paclitaxel], the PTX release behavior in data set [1] was at most 8 h. Besides, the “apoptosis and necrosis rates of C6 cells” value in data set [2] came out at 75.65 ± 1.77%. This compound also had an Increased survival time in data set [3] of 53%.
